Laboratory results reported in publication PMC12040169 (PLOS Biology, 2025).

Test: in vitro
Settings: human, hela cells, % viability

Structure (SMILES) | viability at 28.5 h, 10 µM [%]
CC(=O)C12c3ccccc3C(c3ccccc31)C1C(=O)N(c3ccc(Cl)c(C(=O)O)c3)C(=O)C12 (stereo not drawn) [CBK263021] | 93.8
CCC12CN3CCN(CC(C3)/C1=N\O)C2 [CBK263022] | 85.9
O=C(O)c1cc2nc3c(c(C(F)(F)F)n2n1)CCc1ccccc1-3 [CBK263025] | 102
O=C(c1cccnc1)N1CCN(Cc2ccc([N+](=O)[O-])cc2)CC1 [CBK263026] | 93.4
CCC(SC1=NCCS1)C(=O)Nc1ccc(S(N)(=O)=O)cc1 (stereo not drawn) [CBK263027] | 95.3
CN(C)CC1(O)C2CN3CCN(C2)CC1(c1ccccc1)C3 (stereo not drawn) [CBK263029] | 97.5
O=C(O)c1ccc(N2C(=O)C3C4C=CC(C4=C(c4ccccc4)c4ccccc4)C3C2=O)cc1 (stereo not drawn) [CBK263030] | 104
COc1ccc(C(=O)N2CCN(Cc3cc(OC)ccc3OC)CC2)cc1 [CBK263032] | 88.8
CC12CN3CCN(CC(C3)C1(O)CN1CCOCC1)C2 (stereo not drawn) [CBK263033] | 103
CCOC(=O)c1c(NC(=O)Cn2cnc([N+](=O)[O-])n2)sc2c1CCC2 [CBK263042] | 92.5
Cc1ccc(-c2nc3ncccc3o2)cc1NC(=O)c1ccc(F)cc1 [CBK263043] | 103
O=C(NCCCN1CCOCC1)c1cnn2c(-c3ccccc3)cc(-c3ccccc3)nc12 [CBK263046] | 79.9
CN(C)CCNCCP(=O)(c1ccccc1)c1ccccc1 [CBK263049] | 104
Cc1c(NC(=O)c2ccc([N+](=O)[O-])o2)cccc1-c1nc2ccccc2s1 [CBK263051] | 85.6
Cc1ccc(C(=O)Nc2c(C(=O)N3CCN(Cc4ccccc4)CC3)cnn2-c2ccccc2)cc1 [CBK263053] | 91.1
CCOC(=O)c1c(NC(=O)Cn2nc([N+](=O)[O-])c(Cl)c2C)sc2c1CCC(C)C2 (stereo not drawn) [CBK263054] | 94.2
Cc1ccc2oc(-c3ccc(C)c(NC(=O)c4cc([N+](=O)[O-])ccc4Cl)c3)nc2c1 [CBK263055] | 94.5
Cc1ccc(C(=O)Nc2c(C(=O)Nc3cccnc3)cnn2-c2ccccc2)cc1 [CBK263056] | 92.4
O=C(Cn1nnc(-c2ccccc2)n1)Nc1cccc([N+](=O)[O-])c1 [CBK263057] | 97.9
CCOC(=O)c1c(NC(=O)Cn2cnc([N+](=O)[O-])n2)sc2c1CCC(C)C2 (stereo not drawn) [CBK263058] | 120
CC(Sc1nc2ccccc2[nH]1)C(=O)O (stereo not drawn) [CBK263063] | 101

Structure (SMILES) | viability at 28.5 h, 10 µM [%]
S=C(NCCN1CCCCC1)NCc1ccccc1 [CBK263066] | 112
Nc1nc(N)nc(Cn2c(-c3nonc3N)nc3ccccc32)n1 [CBK263072] | 105
Cc1c(Nc2nc3nonc3nc2Nc2cccc(Cl)c2)c(=O)n(-c2ccccc2)n1C [CBK263073] | 103
C=CCNc1nc(NCCN2CCOCC2)nc(N2CCOCC2)n1 [CBK263074] | 112
O=S(=O)(Nc1ccc(N2CCCCC2)cc1)c1cccc2cccnc12 [CBK263077] | 93.1
O=C(O)C(Cc1ccccc1)N1C(=O)/C(=C/c2cccc([N+](=O)[O-])c2)SC1=S (stereo not drawn) [CBK263078] | 98.4
O=C(O)c1cccnc1SC1CC(=O)N(c2ccc([N+](=O)[O-])cc2)C1=O (stereo not drawn) [CBK263079] | 100
N#C/C(=C\c1ccc(-c2cc(Cl)ccc2Cl)o1)C(=O)Nc1cccc2cccnc12 [CBK263082] | 110
COc1ccc(C(O)c2coc3ccc(O)c(CN(C)C)c23)cc1 (stereo not drawn) [CBK263083] | 96.4
Cc1ccc(C(=O)c2coc3ccc(OCC(=O)O)cc23)cc1 [CBK263084] | 86.6
O=C(O)c1ccc(N2C(=O)/C(=C/c3c[nH]c4ccccc34)SC2=S)cc1 [CBK263085] | 90.4
O=C(Cc1n[nH]c(=O)[nH]c1=O)N/N=C/c1cccc(Br)c1 [CBK263086] | 83
COCCCNC(NC(=O)c1ccc(C)cc1)C(Cl)(Cl)Cl (stereo not drawn) [CBK263087] | 107
NS(=O)(=O)c1ccc(CCNC(=O)c2ccc(C#Cc3ccccc3)cc2)cc1 [CBK263089] | 95.9
CC(C)c1ccc(/C=N/Nc2nc(-c3ccccc3)cs2)cc1 [CBK263091] | 94.5
O=C(c1ccc(C#CC2(O)CCCCC2)cc1)N1CCN(Cc2ccccc2)CC1 [CBK263094] | 100
CCOC(=O)c1cc2c(=O)n3cc(C)ccc3nc2n(Cc2cccnc2)c1=N [CBK263095] | 90.5
Cc1nc(N/N=C/c2ccc3c(c2)OCO3)sc1C [CBK263098] | 106
CC(C)(O)C#Cc1ccc(C(=O)N2CCN(Cc3ccccc3)CC2)cc1 [CBK263100] | 80.3
NC(=O)c1c(NC(=O)CSc2ccc(Cl)cc2)sc2c1CCCC2 [CBK263101] | 77.7
CCCc1ccc(OCC(=O)Nc2ccccc2C(N)=O)cc1 [CBK263103] | 88.7

Structure (SMILES) | viability at 28.5 h, 10 µM [%]
O=C(O)C(Cc1ccccc1)N1C(=O)/C(=C/c2ccc([N+](=O)[O-])cc2)SC1=S (stereo not drawn) [CBK263108] | 84.3
O=C1NC(=Nc2ccccn2)SC1Cc1ccc(Br)cc1 (stereo not drawn) [CBK263109] | 82.3
CC(C)(O)C#Cc1ccc(C(=O)NCCc2ccc(S(N)(=O)=O)cc2)cc1 [CBK263110] | 98.2
Cc1c(Cc2ccccc2)c(N2CCN(C/C=C/c3ccccc3)CC2)n2c(nc3ccccc32)c1C#N [CBK263112] | 101
Cc1noc(NS(=O)(=O)c2ccc(NC(=O)/C=C/c3ccc(Cl)cc3Cl)cc2)c1C [CBK263115] | 90.4
O=C(O)COc1ccccc1/C=N/NC(=O)Cc1ccc(Br)c2ccccc12 [CBK263116] | 85.6
NC(=O)c1ccccc1NC(=O)CCN1C(=O)c2cccc([N+](=O)[O-])c2C1=O [CBK263118] | 87.4
CCOc1ccc2nc(NC3=NC(CC(=O)O)C(=O)N3)nc(C)c2c1 (stereo not drawn) [CBK263120] | 103
N#C/C(=C/c1ccc(-c2ccc(S(N)(=O)=O)cc2)o1)C(=O)Nc1ccccc1 [CBK263123] | 119
O=C1N/C(=N/N=C\c2cccc([N+](=O)[O-])c2)SC1Cc1ccc(Br)cc1 (stereo not drawn) [CBK263125] | 101
NS(=O)(=O)c1ccc(-c2ccc(/C=C3/SC(=S)N(C4CCCCC4)C3=O)o2)cc1 [CBK263127] | 88
CN1CCN(c2nc3ccccn3c(=O)c2/C=C2\SC(=S)N(CCc3ccccc3)C2=O)CC1 [CBK263131] | 110
NC(=O)c1c(NC(=O)CCN2C(=O)c3cccc([N+](=O)[O-])c3C2=O)sc2c1CCCC2 [CBK263132] | 105
CC1CCCC(C)N1CC(O)COCc1ccc2c(c1)OCO2 (stereo not drawn) [CBK263134C] | 86.3
COc1ccc(CCNc2c(Cc3ccccc3)c(C)c(C#N)c3nc4ccccc4n23)cc1OC [CBK263135] | 93
Cc1ccc(C(=O)N/C(=C\c2ccccc2F)c2n[nH]c(=S)[nH]2)cc1 [CBK263136] | 87.4
Sc1nnc(COc2ccc(Cl)cc2Cl)n1Cc1ccccc1 [CBK263138] | 88.2
N#Cc1c2c(c(NCCN3CCCCC3)n3c1nc1ccccc13)CCC2 [CBK263140] | 114
C/C(=N\NC(=O)CCN1CCN(C)CC1)c1ccc(O)cc1 [CBK263142] | 92.2
Cc1c(Cc2ccccc2)c(-n2ccnc2C)n2c(nc3ccccc32)c1C#N [CBK263144] | 92.4
O=C(CC(=O)Nc1c(Cl)cccc1C(F)(F)F)Nc1c(Cl)cccc1C(F)(F)F [CBK263148] | 103

Structure (SMILES) | viability at 28.5 h, 10 µM [%]
Cc1c(Cc2ccccc2)c(N2CCN(Cc3ccccc3)CC2)n2c(nc3ccccc32)c1C#N [CBK263150] | 94.9
CCOCCCNc1c2c(c(C#N)c3nc4ccccc4n13)CCC2 [CBK263151] | 93.5
Cc1ccc2[nH]c3c(c2c1)CCCC3NCC(O)Cc1ccccc1 (stereo not drawn) [CBK263154] | 87.2
O=C(O)CN(c1ccccc1[N+](=O)[O-])S(=O)(=O)c1ccccc1 [CBK263158] | 95.6
O=[N+]([O-])c1ccc(CN2CCN(Cc3cccnc3)CC2)cc1 [CBK263161] | 109
Cc1cc([N+](=O)[O-])ccc1NC(=O)Cn1cnc2c1c(=O)n(C)c(=O)n2C [CBK263162] | 105
CN1CCN(/N=C/c2c(C(F)(F)F)[nH]n(-c3nc4ccccc4s3)c2=O)CC1 [CBK263163] | 92.4
CCn1c2ccccc2c2cc(CN3CCN(Cc4cc(OC)cc(OC)c4)CC3)ccc21 [CBK263164] | 95.9
O=C(CCN1CCOCC1)Nc1ccc(Br)cc1C(=O)c1ccccc1 [CBK263165] | 93
Cc1ccc(S(=O)(=O)N(CC(=O)NC2CCCC2)Cc2ccccc2)cc1 [CBK263166] | 89.9
Cc1nc2ccc(NC(=S)N3c4ccccc4CC3C)cc2nc1C (stereo not drawn) [CBK263169] | 62.5
C=CCn1c(COc2ccc(Cl)cc2)nnc1SCC(=O)O [CBK263171] | 105
COc1ccccc1N1CCN(/N=C\c2ccccc2OCC(=O)O)CC1 [CBK263173C] | 93.5
COc1cc(/C=C2\N=C(c3cccs3)OC2=O)ccc1OCc1ccc(Cl)cc1 [CBK263176] | 101
CCn1c(SCC(=O)N/N=C/C(C)=C/c2ccccc2)nc2ccccc21 [CBK263178] | 107
C/C(=N/NC(=O)CSc1nc2ccccc2n1C)c1cccc([N+](=O)[O-])c1 [CBK263179] | 99.3
C/C(=N\NC(=O)CSc1nc2ccccc2n1Cc1ccccc1)c1ccco1 [CBK263180] | 118
O=C(/C=C/c1ccco1)Nc1sc2c(c1C(=O)O)CCC2 [CBK263181] | 97.7
CCOC(=O)c1c(NC(=O)CSc2nnc(C)s2)sc2c1CCC2 [CBK263183] | 91.2

Same assay, conditions: human, hela cells, % viability, bulk resorufin, single well

Structure (SMILES) | viability at 28.5 h, 10 µM [%]
O=C(O)CCC(=O)OC1N=C(c2ccccc2Cl)c2cc(Br)ccc2NC1=O (stereo not drawn) [CBK263076] | 85.2
Cc1ccc(CN2CCN(Cc3ccc([N+](=O)[O-])cc3)CC2)cc1 [CBK263168] | 92.9
